Test results: the Deep4Chem optical property database
One block for each molecule: values may come before it.

Assay: solvent given as SMILES

absorption maximum (in O): 565 nm
Compound: CC1=CC(C)=[N+]2C1=C(c1ccccc1)c1c(C)cc(/C=C/c3ccc(O)cc3)n1[B-]2(F)F

absorption maximum (in CC#N): 324 nm
Compound: N#Cc1cccc(-c2pc3ccccc3s2)c1 (configuration not stated)

absorption maximum (in ClCCl): 401 nm
Compound: COC(=O)c1[nH]c(-c2ccccc2)c2nnc3ccsc3c12

absorption maximum (in CC#N): 548 nm
absorption maximum (in CCO): 552 nm
absorption maximum (in CN(C)C=O): 552 nm
absorption maximum (in O): 562 nm
Compound: CCN(CC)c1ccc2c(-c3ccc(S(=O)(=O)[O-])cc3S(=O)(=O)[O-])c3ccc(=[N+](CC)CC)cc-3oc2c1

absorption maximum (in ClC(Cl)Cl): 744 nm
Compound: Cc1ccc(/C2=c3\cc/c(o3)=C(\c3ccc(C)cc3)c3ccc([nH]3)-c3ccc4n3[P-](=O)(=O)[N+]3=C(C=CC3=C4c3ccco3)c3ccc2[nH]3)cc1

absorption maximum (in ClCCl): 386 nm
Compound: CN(C)c1ccc(-c2ccc(/C=C/c3ccncn3)cc2)cc1

absorption maximum (in ClC(Cl)Cl): 376 nm
Compound: COc1ccc(-c2ccc(-c3c4c(nc5ccccc35)-c3cc5c(cc3CC4)-c3nc4ccccc4c(-c4ccc(-c6ccc(OC)cc6)cc4)c3CC5)cc2)cc1

absorption maximum (in CO): 712 nm
absorption maximum (in O): 712 nm
Compound: CN(C)c1ccc2c(c1)[Si](C)(C)C1=CC(=[N+](C)C)C=CC1=C2C#Cc1ccccc1

absorption maximum (in ClCCl): 506 nm
Compound: CN(C)c1ccc(C#Cc2cc(C#Cc3ccc(C(F)(F)F)cc3)c3ccc4c(C#Cc5ccc(C(F)(F)F)cc5)cc(C#Cc5ccc(N(C)C)cc5)c5ccc2c3c54)cc1

absorption maximum (in CN(C)C=O): 310 nm
Compound: Cc1nc2cccc(-c3nc4ccccc4o3)c2c(=O)[nH]1

absorption maximum (in C1CCCCC1): 403 nm
absorption maximum (in CC#N): 405 nm
absorption maximum (in CO): 404 nm
absorption maximum (in ClCCl): 406 nm
Compound: COc1c2ccccc2c(OC)c2c1c1c(F)cccc1n2C

absorption maximum (in C1CCOC1): 450 nm
absorption maximum (in CCCCCC): 440 nm
absorption maximum (in ClCCl): 462 nm
absorption maximum (in c1ccccc1): 450 nm
Compound: O=C1OC(=O)c2ccc(N(c3ccccc3)c3c4ccccc4cc4ccccc34)c3cccc1c23

absorption maximum (in ClCCl): 410 nm
Compound: CC(C)(C)c1ccc(C#Cc2cc3ccc4cc(C#Cc5ccc(C(C)(C)C)cc5)cc5ccc(c2)c3c45)cc1

Second part, the molecule before the results:

Compound: CCOC(=O)c1csc2[n+]1[B-](F)(F)OC(c1ccc(N(C)C)cc1)=N2
absorption maximum (in C1CCOC1): 404 nm
absorption maximum (in CC#N): 405 nm
absorption maximum (in Cc1ccccc1): 406 nm
absorption maximum (in ClCCl): 412 nm

Compound: COc1ccc(/C=C2\OC(=O)c3ccccc32)cc1
absorption maximum (in CC#N): 336 nm

Compound: O=C1c2cc(-c3ccccc3)ccc2-c2ccc(-c3ccccc3)cc21
absorption maximum (in C1CCOC1): 337 nm

Compound: COc1c2ccccc2c(-c2ccccc2)c2ccccc12
absorption maximum (in C1COCCO1): 378 nm
absorption maximum (in CCCCCC): 378 nm
absorption maximum (in CCCCCCC): 376 nm
absorption maximum (in CCCCO): 378 nm
absorption maximum (in CCO): 378 nm
absorption maximum (in CN(C)C=O): 378 nm
absorption maximum (in Cc1ccccc1): 378 nm
absorption maximum (in ClC(Cl)(Cl)Cl): 376 nm
absorption maximum (in ClC(Cl)Cl): 378 nm
absorption maximum (in ClCCl): 378 nm
absorption maximum (in OCC(O)CO): 378 nm
absorption maximum (in OCCO): 379 nm

Compound: O=P1(c2ccccc2)C(c2ccsc2)=C(c2ccsc2)c2ccccc21 (configuration not stated)
absorption maximum (in C1CCOC1): 355 nm

Compound: O=C([O-])c1cc2c(ccc3ccccc32)oc1=O
absorption maximum (in O): 360 nm

Compound: O=C(c1ccc(C(=O)c2ccc(N3c4ccccc4Oc4ccccc43)cc2)cc1)c1ccc(N2c3ccccc3Oc3ccccc32)cc1
absorption maximum (in Cc1ccccc1): 425 nm

Compound: CCCCCCCCCCCCCCCC[n+]1ccc(/C=C/c2ccc(N(C)C)cc2)cc1
absorption maximum (in C1COCCO1): 463 nm
absorption maximum (in CC(C)=O): 477 nm
absorption maximum (in CC(C)O): 481.2 nm
absorption maximum (in CCCCCC): 454.6 nm
absorption maximum (in CCCCO): 487.1 nm
absorption maximum (in CCCO): 485.6 nm
absorption maximum (in CCO): 484.9 nm
absorption maximum (in CN(C)C=O): 475.3 nm
absorption maximum (in CO): 480.2 nm
absorption maximum (in CS(C)=O): 479 nm
absorption maximum (in Cc1ccccc1): 474.8 nm
absorption maximum (in ClC(Cl)(Cl)Cl): 467.2 nm
absorption maximum (in ClC(Cl)Cl): 493 nm
absorption maximum (in ClCCl): 515.2 nm
absorption maximum (in c1ccccc1): 476 nm

Compound: CCC1=C(CC)C(C)=[N+]2C1=Cc1c(C)c3cc4c(cc3n1[B-]2(F)F)=[N+]1C(=Cc2c(CC)c(CC)c(C)n2[B-]1(F)F)C=4C
absorption maximum (in ClC(Cl)Cl): 692 nm

Compound: N#CC(C#N)=C(c1cccc(N(c2ccccc2)c2ccccc2)c1)c1cccc(N(c2ccccc2)c2ccccc2)c1
absorption maximum (in C1CCCCC1): 367.69 nm
absorption maximum (in CC(C)=O): 371.43 nm
absorption maximum (in CN(C)C=O): 374.84 nm
absorption maximum (in Cc1ccccc1): 374.84 nm
absorption maximum (in ClC(Cl)Cl): 382.14 nm

Compound: N#CC1=c2cc3c4c(c2Oc2c1cc1c5c2CCCN5CCC1)CCC[N+]=4CCC3
absorption maximum (in CCO): 682 nm

Compound: Cc1cccc2nc3[nH]c(=O)[nH]c(=O)c3nc12
absorption maximum (in CC#N): 380 nm

Compound: Cc1ccccc1Oc1ccc2c3c(cccc13)C(=O)N(CCO)C2=O
absorption maximum (in ClC(Cl)Cl): 355 nm

Compound: COc1cccc(C2=c3c(c4ccc(C(C)(C)C)cc4c4cc(C(C)(C)C)ccc34)=[N+]3C2=C(c2ccccc2)c2c(-c4cccc(OC)c4)c4c5ccc(C(C)(C)C)cc5c5cc(C(C)(C)C)ccc5c4n2[B-]3(F)F)c1
absorption maximum (in C1CCCCC1): 680 nm
absorption maximum (in C1CCOC1): 677 nm
absorption maximum (in CC#N): 670 nm
absorption maximum (in Cc1ccccc1): 682 nm
absorption maximum (in ClCCl): 677 nm

Compound: COc1ccc(O)c(-c2[nH]c(=O)n3c2-c2ccccc2C3=O)c1
absorption maximum (in CC#N): 395 nm
absorption maximum (in CO): 401 nm
absorption maximum (in ClCCl): 399 nm

Compound: CC1(C)CC(=O)c2ccccc2N1
absorption maximum (in CCO): 383 nm

Compound: COc1ccc2c(c1)-c1cc(OC)ccc1C2=O
absorption maximum (in C1CCCCC1): 361 nm
absorption maximum (in CC#N): 376 nm
absorption maximum (in CCO): 382 nm

Compound: C(=C\c1nc(/C=C/c2ccccc2)nc(/C=C/c2ccccc2)n1)/c1ccccc1
absorption maximum (in ClCCl): 327 nm

Compound: CC[N+]1=C(/C=C/C=C/C=C/C=C2/N(CCCCCC(=O)O)c3ccccc3C2(C)C)C(C)(C)c2cc(S(=O)(=O)[O-])ccc21
absorption maximum (in CO): 751 nm
absorption maximum (in O): 745 nm

Compound: COc1ccc(-c2ncccn2)cc1
absorption maximum (in ClCCl): 283 nm

Compound: COc1ccc(-c2cc(-c3ccc(N(C)C)cc3)nc(-c3ccccc3)n2)cc1
absorption maximum (in ClC(Cl)Cl): 365 nm

Compound: CCC12C(=C3C(=C4c5ccc(-c6ccc(C(C)=O)s6)cc5S(=O)(=O)C41CC)C(F)(F)C(F)(F)C3(F)F)c1ccc(-c3ccc(C(C)=O)s3)cc1S2(=O)=O (configuration not stated)
absorption maximum (in C1COCCO1): 485 nm

Compound: COc1cc(OC)c2cc(C#N)c(=N)oc2c1
absorption maximum (in ClCCl): 372 nm
